The source made the active and inactive calls. No cut-off for these calls is given here.
Columns and labels:
[1] = tested on: Plasmodium yoelii nigeriensis; experiment: Antimalarial activity against multi-drug resistant Plasmodium yoelii nigeriensis infected in swiss mouse model assessed as suppression of parasitemia at 96 mg/kg, IM administered for 4 days relative to control; assay type: functional; conditions: time 4 day
[2] = tested on: Plasmodium yoelii nigeriensis; experiment: Antimalarial activity against multi-drug resistant Plasmodium yoelii nigeriensis infected in swiss mouse model at 96 mg/kg, po administered for 4 days and measured within 6 to 8 days; assay type: functional, organism-based; conditions: time 6-8 day
[3] = tested on: Plasmodium yoelii nigeriensis; experiment: Antimalarial activity against multi-drug resistant Plasmodium yoelii nigeriensis infected in swiss mouse model assessed as suppression of parasitemia at 96 mg/kg, po administered for 4 days relative to control; assay type: functional; conditions: time 4 day
[4] = tested on: Plasmodium yoelii nigeriensis; experiment: Antimalarial activity against multi-drug resistant Plasmodium yoelii nigeriensis infected in swiss mouse model assessed as suppression of parasitemia at 48 mg/kg, po administered for 4 days relative to control; assay type: functional; conditions: time 4 day
[5] = tested on: Plasmodium yoelii nigeriensis; experiment: Antimalarial activity against multi-drug resistant Plasmodium yoelii nigeriensis infected in swiss mouse model assessed as animal survival at 96 mg/kg, po administered for 4 days and measured after 28 days; assay type: functional; conditions: time 28 day
[6] = tested on: Plasmodium yoelii nigeriensis; experiment: Antimalarial activity against multi-drug resistant Plasmodium yoelii nigeriensis infected in swiss mouse model at 96 mg/kg, IM administered for 4 days and measured within 6 to 8 days; assay type: functional, organism-based; conditions: time 6-8 day
[7] = tested on: Plasmodium yoelii nigeriensis; experiment: Antimalarial activity against multi-drug resistant Plasmodium yoelii nigeriensis infected in swiss mouse model at 48 mg/kg, IM administered for 4 days and measured within 6 to 8 days; assay type: functional, organism-based; conditions: time 6-8 day
[8] = tested on: Plasmodium yoelii nigeriensis; experiment: Antimalarial activity against multi-drug resistant Plasmodium yoelii nigeriensis infected in swiss mouse model assessed as animal survival at 48 mg/kg, IM administered for 4 days and measured after 28 days; assay type: functional; conditions: time 28 day
[9] = tested on: Plasmodium yoelii nigeriensis; experiment: Antimalarial activity against multi-drug resistant Plasmodium yoelii nigeriensis infected in swiss mouse model assessed as animal survival at 96 mg/kg, IM administered for 4 days and measured after 28 days; assay type: functional; conditions: time 28 day
[10] = tested on: Plasmodium yoelii nigeriensis; experiment: Antimalarial activity against multi-drug resistant Plasmodium yoelii nigeriensis infected in swiss mouse model assessed as suppression of parasitemia at 48 mg/kg, IM administered for 4 days relative to control; assay type: functional; conditions: time 4 day
[11] = tested on: Plasmodium yoelii nigeriensis; experiment: Antimalarial activity against multi-drug resistant Plasmodium yoelii nigeriensis infected in swiss mouse model assessed as suppression of parasitemia at 24 mg/kg, IM administered for 4 days relative to control; assay type: functional; conditions: time 4 day
[12] = tested on: Plasmodium yoelii nigeriensis; experiment: Antimalarial activity against multi-drug resistant Plasmodium yoelii nigeriensis infected in swiss mouse model assessed as suppression of parasitemia at 24 mg/kg, po administered for 4 days relative to control; assay type: functional; conditions: time 4 day
[13] = tested on: Plasmodium yoelii nigeriensis; experiment: Antimalarial activity against multi-drug resistant Plasmodium yoelii nigeriensis infected in swiss mouse model at 48 mg/kg, po administered for 4 days and measured within 6 to 8 days; assay type: functional, organism-based; conditions: time 6-8 day
[14] = tested on: Plasmodium yoelii nigeriensis; experiment: Antimalarial activity against multi-drug resistant Plasmodium yoelii nigeriensis infected in swiss mouse model assessed as suppression of parasitemia by measuring fold change at 48 mg/kg, po administered for 4 days relative to artemisinin; assay type: functional; conditions: time 4 day

C=C(c1ccc(OC(C)(C)CO)cc1)C1COC2(CCCC2)OO1 (stereo not drawn)
Activity [1]: 98%
Activity [2]: inactive
Activity [3]: 53%

C=C(c1ccc(OC(C)(C)CO)cc1)C1COC2(CCCCC2)OO1 (stereo not drawn)
Activity [1]: 100%
Activity [2]: inactive
Activity [3]: 68%

C=C(c1ccc(OC(C)(C)CNc2cc(Cl)cc(Cl)c2)cc1)C1COC2(CCCC2)OO1 (stereo not drawn)
Activity [4]: 100%
Survival [5]: >28 days
Activity [2]: Active
Activity [3]: 100%

C=C(c1ccc(OC(C)(C)CO)cc1)C1COC2(CCC(Nc3ccc(Br)cc3)CC2)OO1 (stereo not drawn)
Activity [1]: 100%
Activity [6]: Active
Activity [7]: Active
Survival [8]: >28 days
Survival [9]: >28 days
Activity [2]: inactive
Activity [10]: 100%
Activity [3]: 100%

C=C(c1ccc(OC(C)(C)CNc2ccc(C(F)(F)F)cc2)cc1)C1COC2(CCCC2)OO1 (stereo not drawn)
Activity [1]: 65%
Activity [6]: inactive
Activity [4]: 100%
Survival [5]: >28 days
Activity [2]: Active
Activity [3]: 100%

C[C@@H]1CC[C@H]2[C@@H](C)C(=O)O[C@@H]3O[C@@]4(C)CC[C@@H]1[C@]32OO4 [ARTEMISININ]
Activity [7]: Active
Activity [2]: inactive
Activity [10]: 100%
Activity [3]: 100%
Activity [11]: 100%

C=C(c1ccc(OC(C)(C)CNc2ccc(C)cc2)cc1)C1COC2(CCCCC2)OO1 (stereo not drawn)
Activity [1]: 99%
Activity [3]: 100%

C=C(c1ccc(OC(C)(C)CNc2ccc(F)cc2)cc1)C1COC2(OO1)C1CC3CC(C1)CC2C3 (stereo not drawn)
Activity [4]: 100%
Activity [12]: 100%
Activity [2]: Active
Activity [13]: Active
fold change (FC) [14]: 2
Activity [3]: 100%

C=C(c1ccc(OC(C)(C)CO)cc1)C1COC2(CCC(=O)CC2)OO1 (stereo not drawn)
Activity [1]: 53%
Activity [6]: inactive
Activity [2]: inactive
Activity [3]: 60%

C=C(c1ccc(OC(C)(C)CNc2ccccc2)cc1)C1COC2(OO1)C1CC3CC(C1)CC2C3 (stereo not drawn)
Activity [4]: 100%
Activity [12]: 100%
Activity [2]: Active
Activity [13]: Active
fold change (FC) [14]: 2
Activity [3]: 100%

C=C(c1ccc(OC(C)(C)CNc2ccc(Br)cc2)cc1)C1COC2(CCCCC2)OO1 (stereo not drawn)
Activity [1]: 100%
Survival [5]: >28 days
Activity [2]: Active
Activity [3]: 100%

C=C(c1ccc(OC(C)(C)CO)cc1)C1COC2(OO1)C1CC3CC(C1)CC2C3 (stereo not drawn)
Activity [1]: 100%
Activity [6]: Active
Activity [7]: Active
Activity [4]: 100%
Activity [2]: Active
Activity [10]: 100%
Activity [3]: 100%
